Test results: patent EP4755880A1, “SUBSTITUTED NITROGEN-CONTAINING BICYCLIC COMPOUND AND USE THEREOF” (Sunshine Lake Pharma Co., Ltd., priority 2023, dated 2025)
pIC50: −log10 of the molar value.

Legend:
MDA-MB-436 cells = test: Inhibition of proliferation of MDA-MB-436 cells (CellTiter-Glo); format: cell-based; conditions: Homo sapiens, MDA-MB-436, 168 h, 7 days incubation
Procedure: • 1. Cell Pretreatment: MDA-MB-436 cells were cultured in DMEM + 10% FBS + 1% penicillin-dip antibiotics + 1% ITS + 16 µg/ml glutathione. Cells in the logarithmic growth phase were digested with trypsin-EDTA, centrifuged and resuspended, and then seeded at a rate of 500-1000 cells/well in sterile 96-well opaque plates, 90 µl per well. After seeding, the cell culture plates were incubated overnight at 37°C with 5% CO2 before drug treatment. • 2. Drug treatment of MDA-MB-436 cells: The test compound was prepared as a 10 mM stock solution using DMSO. The drug was then diluted to a 10× working solution using growth medium (the compound was started at 100 µM and diluted 4-fold to achieve 9 concentrations). 10 µl of the 10× working solution was added to each well to achieve final drug concentrations of 10000, 2500, 625, 156, 39, 9.7, 2.4, 0.61, and 0.152 nM, respectively. Blank control wells containing the same DMSO concentration were also included, with three replicates for each concentration. After drug addition, the cells were incubated at 37°C with 5% CO2 for 7 days. • 3. After incubation, 100 µl of CellTiter-Glo® Reagent was added to each well, and luminescence was measured. The IC50 value of cell proliferation inhibition was calculated using GraphPad software to fit the curve. Table E: Results of the inhibitory effect of the compound of this invention on the proliferation of MDA-MB-436 cells.

DLD-1 BRCA2(-/-) cells = test: Inhibition of proliferation of DLD-1 BRCA2(-/-) cells (CTG method); format: cell-based; conditions: Homo sapiens, DLD-1, 168 h; 7 days incubation, CellTiter-Glo
Procedure: • 1. Cell Pretreatment: DLD-1 BRCA2(-/-) cells were cultured in growth medium 1640 + 10% FBS (fetal bovine serum) + 1% Penicillin-Streptomycin. Cells in the logarithmic growth phase were digested with trypsin-EDTA, centrifuged, and resuspended. DLD-1 BRCA2(-/-) cells were seeded at 1,000 cells/well in sterile 96-well opaque plates, 75 µl per well. After seeding, the cell culture plates were incubated overnight at 37 °C with 5% CO2 before adhesion, followed by treatment with the test compounds. • 2. DLD-1 BRCA2(-/-) Cell Drug Treatment: The test compound was prepared as a 10 mM stock solution using DMSO. The test compound was then diluted to a 4× working solution using growth medium (starting at 40 µM, with 9 4-fold dilutions). 25 µl of 4× working solution was added to each well to achieve final concentrations of 10000, 2500, 625, 156, 39, 9.7, 2.4, 0.61, and 0.152 nM, respectively. Blank control wells containing the same DMSO concentration were also included, with three replicates for each concentration. After adding the test compound, the cells were incubated at 37 °C with 5% CO2 for 7 days. • 3. After incubation, 100 µl of CellTiter-Glo® Reagent was added to each well, and […] intensity was measured. A curve was fitted using GraphPad software, and the IC50 value for cell proliferation inhibition was calculated.

PARP1 = PARP1 (Homo sapiens, UniProt P09874); test: Inhibition of PARP1 enzyme activity (ELISA, chemiluminescence); format: biochemical; conditions: for IC50: ELISA, histone-coated plate, NAD+, 60 min at 25 °C; for Selectivity PARP2/PARP1: ratio of PARP2 IC50 to PARP1 IC50
Chain of PARP1 (P09874 whole entry): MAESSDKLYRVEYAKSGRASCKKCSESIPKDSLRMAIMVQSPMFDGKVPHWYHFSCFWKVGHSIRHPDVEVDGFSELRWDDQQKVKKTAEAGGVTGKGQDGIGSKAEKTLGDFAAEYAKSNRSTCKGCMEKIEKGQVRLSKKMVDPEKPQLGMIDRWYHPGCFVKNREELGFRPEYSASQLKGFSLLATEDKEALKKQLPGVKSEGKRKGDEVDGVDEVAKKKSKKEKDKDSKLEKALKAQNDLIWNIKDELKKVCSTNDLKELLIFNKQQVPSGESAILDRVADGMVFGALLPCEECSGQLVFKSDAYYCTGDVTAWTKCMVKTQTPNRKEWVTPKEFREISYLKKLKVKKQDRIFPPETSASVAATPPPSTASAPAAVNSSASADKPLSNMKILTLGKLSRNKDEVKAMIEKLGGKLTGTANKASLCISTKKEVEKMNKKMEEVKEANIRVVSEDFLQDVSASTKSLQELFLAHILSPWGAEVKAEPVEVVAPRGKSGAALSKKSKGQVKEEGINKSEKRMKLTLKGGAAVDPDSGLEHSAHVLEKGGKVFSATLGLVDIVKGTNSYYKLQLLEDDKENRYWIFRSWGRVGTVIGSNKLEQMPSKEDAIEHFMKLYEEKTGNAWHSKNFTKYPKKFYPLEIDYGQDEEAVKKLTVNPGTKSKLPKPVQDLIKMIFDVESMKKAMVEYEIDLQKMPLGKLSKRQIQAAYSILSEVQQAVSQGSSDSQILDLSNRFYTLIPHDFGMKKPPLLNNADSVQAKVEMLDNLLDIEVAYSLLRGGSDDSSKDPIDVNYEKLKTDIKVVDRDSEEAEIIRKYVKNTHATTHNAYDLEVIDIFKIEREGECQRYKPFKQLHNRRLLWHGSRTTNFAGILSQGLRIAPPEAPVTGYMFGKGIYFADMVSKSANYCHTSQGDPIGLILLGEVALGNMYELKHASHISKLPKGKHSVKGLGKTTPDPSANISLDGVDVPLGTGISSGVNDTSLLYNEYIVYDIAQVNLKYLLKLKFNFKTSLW
Procedure: (§1) Experimental Objective: To evaluate the inhibitory effect of the compounds of the present invention on the enzyme activities of PARP1 and PARP2 using ELISA.
(§2) • 1. histone-coated 384-well plates was prepared: 25 µL of histone solution was added to each well and incubated overnight at 4 °C. • 2. PBST buffer, blocking buffer (PBS buffer with 5% BSA and 0.05% Tween-20 added) and detection buffer (20 mM HEPES pH 7.5 + 100 mM NaCl + 2 mM DTT + 0.002% Tween-20 + 0.1% BSA) were prepared. • 3. The histone-coated 3 84-well plate was washed three times with PBST buffer, blocked at room temperature with 50 µL blocking buffer for 1 hour, and then washed three times with PBST buffer. • 4. Test compounds were prepared as 2000-fold stock solutions in DMSO. 50 nL of the stock solution was mixed with 19.95 µL detection buffer, and 5 µL of the gradient-diluted test compound was transferred to each well. • 5. Enzymatic reaction (PARP1): PARP1 & DNA mix was pre-incubated at 25 °C for 10 minutes. 10 µL of the PARP1 & DNA mix was added to each well and incubated with the test compound at room temperature for 10 minutes. […] Finally, the 384-well plate was washed three times with PBST buffer. Enzymatic reaction (PARP2): PARP2 was pre-incubated at 25 °C for 10 minutes. 10 µL of PARP2 was added to each well and incubated with the test compound at room temperature for 10 minutes. […] Finally, the 384-well plate was washed three times with PBST buffer. • 6. Detection (PARP1): 20 µL of anti-Poly/Mono-ADP Ribose Rabbit mAb was added and incubated at room temperature for 1.5 hours, followed by three washes of the 384-well plate with PBST buffer. Then, 20 µL of diluted anti-rabbit IgG, HRP-linked Antibody (diluted 1:2000 in blocking buffer) was added and incubated at room temperature for 1 hour. After washing the plate three times with PBST buffer, 25 µL of a 1:1 mixture of Femto-ECL Substrate A and Femto-ECL Substrate B was added. Detection (PARP2): 25 µL of Strep-HRP was added and incubated at room temperature for 1 hour, followed by three washes of the 384-well plate with PBS buffer. Then, 25 µL of a 1:1 mixture of Femto-ECL Substrate A and Femto-ECL Substrate B was added. • 7. Chemiluminescence intensity was measured using an Envision multimode microplate reader. • 8. Data Processing
(§3) The inhibition rate was calculated in Excel using formula (1). inh% = (Max−Signal)/(Max−Min)*100 [formula]
(§4) The IC50 value was obtained by fitting the data in XL-Fit using formula (2). Y = bottom + (top−bottom)/(1+(IC50/X)*HillSlope); [formula] wherein Y is the inhibition percentage and X is the compound concentration.

PARP2 = PARP2 (Homo sapiens, UniProt Q9UGN5); test: biochemical;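 further: PARP2 enzyme ELISA on histone-coated plates, Strep-HRP detection with chemiluminescence read-out, 10 min compound preincubation with enzyme, inhibition scaled between Max and Min signal controls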
Chain of PARP2 (Q9UGN5 whole entry): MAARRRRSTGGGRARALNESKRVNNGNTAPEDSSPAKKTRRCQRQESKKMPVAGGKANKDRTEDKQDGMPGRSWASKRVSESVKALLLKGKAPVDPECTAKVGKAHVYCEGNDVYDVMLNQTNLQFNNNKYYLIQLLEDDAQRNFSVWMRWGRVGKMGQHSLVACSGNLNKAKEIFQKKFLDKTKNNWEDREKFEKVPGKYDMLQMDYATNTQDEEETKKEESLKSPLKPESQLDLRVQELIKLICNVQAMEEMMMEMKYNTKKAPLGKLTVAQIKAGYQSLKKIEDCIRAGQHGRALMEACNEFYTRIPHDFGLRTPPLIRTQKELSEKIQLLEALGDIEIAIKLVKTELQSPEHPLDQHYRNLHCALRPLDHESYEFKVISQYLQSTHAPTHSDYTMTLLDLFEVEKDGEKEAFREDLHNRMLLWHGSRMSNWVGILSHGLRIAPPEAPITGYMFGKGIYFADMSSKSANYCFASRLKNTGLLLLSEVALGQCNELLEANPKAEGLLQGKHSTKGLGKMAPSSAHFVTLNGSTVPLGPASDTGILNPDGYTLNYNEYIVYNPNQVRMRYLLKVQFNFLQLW
Procedure: as §1, §2, §3, §4

[1] = Pharmacokinetics in mice after intravenous injection or gavage; conditions: BALB/c, mouse, plasma
Procedure: (§5) The compounds of the present invention were administered to test animals in the form of 5% DMSO + 30% PEG400 + 65% physiological saline, 10% DMSO + 10% Kolliphor HS15 + 80% Saline, 10% DMSO + 89% (25% SBE-B-CD) + (2% HCl), 20% PEG400 + 80% sterile water for injection, or 10% DMA+ 10% HS15 + 30% PEG400 + 50% sterile aqueous solution for injection. Animals were fasted for 12 hours before administration but had free access to water. For the intravenous administration group, the dose was 1 mg/kg. Blood samples (approximately 0.15 mL) were collected intravenously at the following time points after administration: 0.083, 0.25, 0.5, 1.0, 2.0, 4.0, 6.0, 8.0 and 24 h (dogs) or 0.083, 0.25, 0.5, 1.0, 2.0, 5.0, 7.0 and 24 h (mice and rats) or 0.083, 0.25, 0.5, 1.0, 2.0, 6.0, 8.0 and 24 h (monkeys). EDTA-K2 was pre-added to the blood collection tube as an anticoagulant. The blood samples were centrifuged at 12,000 rpm for 2 minutes, and plasma was collected and stored at -20 °C or - 70 °C. For the gavage administration group, the dosage was 1 mg/kg (mice, dogs, and monkeys) or 5 mg/kg (rats). After administration, venous blood samples (approximately 0.15 mL) were collected at the following time points: 0.25, 0.5, 1.0, 2.0, 4.0, 6.0, 8.0, and 24 h (dogs) or 0.25, 0.5, 1.0, 2.0, 5.0, 7.0, and 24 h (mice and rats) or 0.25, 0.5, 1.0, 2.0, 6.0, 8.0, and 24 h (monkeys). EDTA-K2 was pre-added to the blood collection tube as an anticoagulant. The blood samples were centrifuged at 12,000 rpm for 2 minutes, and plasma was collected and stored at -20 °C or -70 °C.
(§6) The collected plasma samples were processed (frozen plasma was thawed at room temperature, vortexed for 15 s to mix, 10-20 µL of plasma was taken, 120-150 µL of acetonitrile solution containing internal standard was added, vortexed for 5 min to mix, centrifuged at 4,000 rpm for 5 min, 100 µL of supernatant was taken, and 120-150 Ml/water (v/v = 1/1) was added and mixed). The concentration of compounds in the plasma was then analyzed by LC-MS/MS.

[2] = Pharmacokinetics in SD rats after intravenous injection or gavage; conditions: rat, plasma
Procedure: as §5, §6
Table D Pharmacokinetic parameters of compounds of the present invention in SD rats

| SMILES | pIC50 (MDA-MB-436 cells) | pIC50 (DLD-1 BRCA2(-/-) cells) | IC50 (PARP1) [nM] | Selectivity PARP2/PARP1 (PARP1) | pIC50 (PARP2) | AUC(0-t) ([1]; iv, 2 mg/kg) [ng·h/mL] | Cmax ([1]; iv, 2 mg/kg) [ng/mL] | half-life ([1]; iv, 2 mg/kg) [h] | AUC(0-t) ([1]; po, 5 mg/kg) [ng·h/mL] | Cmax ([1]; po, 5 mg/kg) [ng/mL] | half-life ([1]; po, 5 mg/kg) [h] | AUC(0-t) ([2]; iv, 1 mg/kg) [ng·h/mL] | Cmax ([2]; iv, 1 mg/kg) [ng/mL] | half-life ([2]; iv, 1 mg/kg) [h] | AUC(0-t) ([2]; po, 5 mg/kg) [ng·h/mL] | Cmax ([2]; po, 5 mg/kg) [ng/mL] | half-life ([2]; po, 5 mg/kg) [h] |
| --- | --- | --- | --- | --- | --- | --- | --- | --- | --- | --- | --- | --- | --- | --- | --- | --- | --- |
| CC#Cc1cc(CN2CCN(c3ccc(C#N)cn3)CC2)cc2[nH]c(=O)c(C)nc12 [Example 43, 6-(4-((2-methyl-3-oxo-8-(prop-1-yn-1-yl)-3,4-dihydroquinoxalin-6-yl)methyl)piperazin-1-yl)nicotinonitrile] | 8.10 | 7.57 | 1.5 | 398.1 | 6.23 |  |  |  |  |  |  |  |  |  |  |  |  |
| Cc1nc2c(OC(F)F)cc(CN3CC=C(c4ccc(C(=O)NC5CC5)nc4F)CC3)cc2[nH]c1=O [Example 42, N-cyclopropyl-1'-((8-(difluoromethoxy)-2-methyl-3-oxo-3,4-dihydroquinoxalin-6-yl)methyl)-2-fluoro-1',2',3',6'-tetrahydro-[3,4'-bipyridine]-6-carboxamide] | 9.52 | 8.15 | 0.9 | 239.7 | 6.66 | 18100 | 8180 | 2.5 | 61500 | 15100 | 2.5 |  |  |  |  |  |  |
| CNC(=O)c1ccc(N2CCN(Cc3cc(OC(F)F)c4cc(C)c(=O)[nH]c4c3)CC2)c(F)n1 [Example 55, 5-(4-((5-(difluoromethoxy)-3-methyl-2-oxo-1,2-dihydroquinolin-7-yl)methyl)piperazin-1-yl)-6-fluoro-N-methylpicolinamide] | > 10.42 | 8.41 | 1.9 | 7.6 | 7.84 |  |  |  |  |  |  |  |  |  |  |  |  |
| CNC(=O)c1ccc(N2CCN(Cc3cc(OC(F)F)c4nc(C5CC5)c(=O)[nH]c4c3)CC2)c(F)n1 [Example 54, 5-(4-((2-cyclopropyl-8-(difluoromethoxy)-3-oxo-3,4-dihydroquinoxalin-6-yl)methyl)piperazin-1-yl)-6-fluoro-N-methylpicolinamide] | 7.54 | 7.74 | 7.6 | 26.7 | 6.69 |  |  |  |  |  |  |  |  |  |  |  |  |
| CNC(=O)c1ccc(N2CCN(Cc3cc(Oc4ccc(F)cc4)c4nc(C)c(=O)[nH]c4c3)CC2)c(F)n1 [Example 6, 6-fluoro-5-(4-((8-(4-fluorophenoxy)-2-methyl-3-oxo-3,4-dihydroquinoxalin-6-yl)methyl)piperazin-1-yl)-N-methylpicolinamide] | 8.17 | 7.84 | 1.2 | 700.1 | 6.08 |  |  |  |  |  |  |  |  |  |  |  |  |
| CNC(=O)c1ccc(N2CCN(Cc3cc(-c4cccc(F)c4)c4nc(C)c(=O)[nH]c4c3)CC2)c(F)n1 [Example 9, 6-fluoro-5-(4-((8-(3-fluorophenyl)-2-methyl-3-oxo-3,4-dihydroquinoxalin-6-yl)methyl)piperazin-1-yl)-N-methylpicolinamide] | 8.09 | 7.95 | 1.61 | 705.3 | 5.94 |  |  |  |  |  |  |  |  |  |  |  |  |
| CC#Cc1cc(CN2CCN3c4ccc(C(=O)NC)nc4COC[C@H]3C2)cc2[nH]c(=O)c(C)nc12 [Example 63, (R)-N-methyl-3-((2-methyl-3-oxo-8-(prop-1-yn-1-yl)-3,4-dihydroquinoxalin-6-yl)methyl)-2,3,4,4a,5,7-hexahydro-1H-pyrazino[2,1-c]pyrido[3,2-e][1,4]oxazepine-9-carboxamide] | 8.21 | 7.79 | 3.2 | 398.8 | 5.89 |  |  |  |  |  |  |  |  |  |  |  |  |
| CNC(=O)c1ccc(N2CCN(Cc3cc(Nc4ccc(F)cc4)c4nc(C)c(=O)[nH]c4c3)CC2)c(F)n1 [Example 33, 6-fluoro-5-(4-((8-((4-fluorophenyl)amino)-2-methyl-3-oxo-3,4-dihydroquinoxalin-6-yl)methyl)piperazin-1-yl)-N-methylpicolinamide] | 8.39 | 8.03 | 1.2 | 188.8 | 6.63 |  |  |  |  |  |  |  |  |  |  |  |  |
| CNC(=O)c1ccc(N2CCN(Cc3cc(OC4CCCC4)c4nc(C)c(=O)[nH]c4c3)CC2)c(F)n1 [Example 71, 5-(4-((8-(cyclopentoxy)-2-methyl-3-oxo-3,4-dihydroquinoxalin-6-yl)methyl)piperazin-1-yl)-6-fluoro-N-methylpyridine amide] | 8.03 | 7.91 | 1.5 | 873.7 | 5.89 |  |  |  |  |  |  |  |  |  |  |  |  |
| CNC(=O)c1ccc(N2CCN(Cc3cc(OC(F)F)c4nc(C)c(=O)[nH]c4c3)CC2)c(C)n1 [Example 52, 5-(4-((8-(difluoromethoxy)-2-methyl-3-oxo-3,4-dihydroquinoxalin-6-yl)methyl)piperazin-1-yl)-N,6-dimethylpicolinamide] | 8.85 | 8.66 |  |  |  | 17800 | 7220 | 2.5 | 67100 | 10700 | 2.8 | 3520 | 1190 | 3.5 | 31100 | 2580 | 3.8 |
| CC#Cc1cc(CN2CCN(c3ccc(C(=O)NC)nc3C)CC2)c(F)c2[nH]c(=O)c(C)nc12 [Example 45, 5-(4-((5-fluoro-2-methyl-3-oxo-8-(prop-1-yn-1-yl)-3,4-dihydroquinoxalin-6-yl)methyl)piperazin-1-yl)-N,6-dimethylpicolinamide] | 7.95 | 7.92 | 7.7 | >1290.7 | < 5.00 |  |  |  |  |  |  |  |  |  |  |  |  |
| CNC(=O)c1ccc(N2CCN(Cc3cc(Oc4ccc(C#N)cc4)c4nc(C)c(=O)[nH]c4c3)CC2)c(F)n1 [Example 32, 5-(4-((8-(4-cyanophenoxy)-2-methyl-3-oxo-3,4-dihydroquinoxalin-6-yl)methyl)piperazin-1-yl)-6-fluoro-N-methylpicolinamide] | 7.40 | 7.16 | 2.8 | >833 | < 5.00 |  |  |  |  |  |  |  |  |  |  |  |  |
| Cc1nc2c(OC(F)F)cc(CN3CCN(c4ccc(C(=O)N[C@H]5C[C@H]5F)nc4F)CC3)cc2[nH]c1=O [Example 57, 5-(4-((8-(difluoromethoxy)-2-methyl-3-oxo-3,4-dihydroquinoxalin-6-yl)methyl)piperazin-1-yl)-6-fluoro-N-((1S,2R)-2-fluorocyclopropyl)picolinamide] | 8.77 | 8.54 | 1.7 | 47.3 | 7.10 |  |  |  |  |  |  |  |  |  |  |  |  |
| CNC(=O)c1ccc(N2CCN(Cc3cc(C4CC4)c4nc(C)c(=O)[nH]c4c3F)CC2)c(F)n1 [Example 19, 5-(4-((8-cyclopropyl-5-fluoro-2-methyl-3-oxo-3,4-dihydroquinoxalin-6-yl)methyl)piperazin-1-yl)-6-fluoro-N-methylpicolinamide] | 8.38 | 8.82 | 0.7 | 107.3 | 7.15 |  |  |  |  |  |  |  |  |  |  |  |  |
| CNC(=O)c1ccc(C2=CCN(Cc3cc(OC(F)F)c4nc(C)c(=O)[nH]c4c3)CC2)cn1 [Example 44, 1'-((8-(difluoromethoxy)-2-methyl-3-oxo-3,4-dihydroquinoxalin-6-yl)methyl)-N-methyl-1',2',3',6'-tetrahydro-[3,4'-bipyridine]-6-carboxamide] | 8.89 | 8.03 | 0.8 | 184.1 | 6.83 |  |  |  |  |  |  |  |  |  |  |  |  |
